Test results published in patent US9669003B2, “Use of flavone and flavanone derivatives in preparation of sedative and hypnotic drugs” (priority 2012, dated 2017).
Marks after values point to notes of the source that are not given here.

Legend:
Type in all cases: in vivo
Kunming mice [1] = assay: Influence on hypnosis effect with pentobarbital sodium doses at the threshold (50 mg/kg i.p.); conditions: pentobarbital sodium 50 mg/kg i.p. 60 min later, x ± s, n = 10
Outline: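 Kunming mice (10/group, half each sex) received compound in 0.5% CMC-Na intragastrically at 25, 50 or 100 mg/kg; 60 min later given 0.3% sodium pentobarbital 50 mg/kg i.p. Sleep latency and duration recorded by loss of righting reflex over 1 min; ANOVA and χ2 for sleep incidence.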

Kunming mice [2] = assay: Influence on hypnosis effect with pentobarbital sodium doses below the threshold (25 mg/kg i.p.); conditions: pentobarbital sodium 25 mg/kg i.p. 60 min later, sleep observed in 30 min, n = 10
Outline: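 Kunming mice (10 per group, half female) given single oral doses of 25, 50 or 100 mg/kg in 0.5% CMC-Na; 60 min later pentobarbital sodium 25 mg/kg i.p. Sleep (righting reflex lost >1 min) scored within 30 min as percentage asleep, χ2 test.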

Kunming mice [3] = assay: Influence on autonomic activity of normal mice (ZIL-2 mice autonomic activity meter, counts within 10 min); conditions: intragastric, x ± s, n = 10; for Times of activities in 1 h after drug administration/10 min: 1 h after administration; for Times of activities in 2 h after drug administration/10 min: 2 h after administration; for Times of activities in 24 h after drug administration/10 min: 24 h after administration
Outline: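 Kunming mice (10 per group, half each sex) were dosed at 25, 50 or 100 mg/kg in 0.5% CMC-Na. Spontaneous activity counts over 10 min were recorded at 1 h, 2 h and 24 h post-dose. Groups were compared by ANOVA with Dunnett's test after Levene's check.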

[4] = 25 mg/kg intragastric single dose
[5] = 50 mg/kg intragastric single dose
[6] = 100 mg/kg intragastric single dose
[7] = test drug 25 mg/kg intragastric single dose
[8] = test drug 50 mg/kg intragastric single dose
[9] = test drug 100 mg/kg intragastric single dose

## C=Cc1ccc(-c2cc(=O)c3cc(C#N)c(Cc4ccccc4)c(C=CC)c3o2)cc1[N+](=O)[O-] [Example 32]
Kunming mice [1]; [4]
  duration of sleep: 25.80 ± 22.64 min
  time to sleep: 5.38 ± 2.21 min
Kunming mice [1]; [5]
  duration of sleep: 46.11 ± 24.53 min
  time to sleep: 4.34 ± 1.45 min
Kunming mice [1]; [6]
  duration of sleep: 54.78 ± 20.89 min
  time to sleep: 3.86 ± 2.35 min
Kunming mice [2]; [7]
  Number of sleeping animals: 3
  rate of sleeping (%): 30%
Kunming mice [2]; [8]
  Number of sleeping animals: 5
  rate of sleeping (%): 50** %
Kunming mice [2]; [9]
  Number of sleeping animals: 6
  rate of sleeping (%): 60** %
Kunming mice [3]; 25 mg/kg
  Times of activities in 1 h after drug administration/10 min: 332.1 ± 47.8 /10 min
  Times of activities in 2 h after drug administration/10 min: 321.3 ± 53.9 /10 min
  Times of activities in 24 h after drug administration/10 min: 327.8 ± 93.9 /10 min
Kunming mice [3]; 50 mg/kg
  Times of activities in 1 h after drug administration/10 min: 270.2 ± 59.3 /10 min
  Times of activities in 2 h after drug administration/10 min: 269.3 ± 50.3 /10 min
  Times of activities in 24 h after drug administration/10 min: 334.7 ± 95.6 /10 min
Kunming mice [3]; 100 mg/kg
  Times of activities in 1 h after drug administration/10 min: 245.9 ± 38.8 /10 min
  Times of activities in 2 h after drug administration/10 min: 258.9 ± 49.9 /10 min
  Times of activities in 24 h after drug administration/10 min: 322.7 ± 88.5 /10 min

## COc1cc2c(c(OC)c1OC)OC(c1cc(OC)c(OC)c(OC)c1OC)CC2=O (stereo not drawn) [Example 67, 6,7,8,3′,4′,5′,6′-hepta methoxyl-flavanone]
Kunming mice [1]; [4]
  duration of sleep: 80.69 ± 20.87 min
  time to sleep: 4.34 ± 1.26 min
Kunming mice [1]; [5]
  duration of sleep: 48.12 ± 22.48 min
  time to sleep: 4.09 ± 1.45 min
Kunming mice [1]; [6]
  duration of sleep: 54.43 ± 19.81 min
  time to sleep: 3.87 ± 2.98 min
Kunming mice [2]; [7]
  Number of sleeping animals: 5
  rate of sleeping (%): 50** %
Kunming mice [2]; [8]
  Number of sleeping animals: 6
  rate of sleeping (%): 60** %
Kunming mice [2]; [9]
  Number of sleeping animals: 7
  rate of sleeping (%): 70** %
Kunming mice [3]; 25 mg/kg
  Times of activities in 1 h after drug administration/10 min: 287.7 ± 45.4 /10 min
  Times of activities in 2 h after drug administration/10 min: 312.5 ± 54.8 /10 min
  Times of activities in 24 h after drug administration/10 min: 307.4 ± 77.0 /10 min
Kunming mice [3]; 50 mg/kg
  Times of activities in 1 h after drug administration/10 min: 247.2 ± 44.5 /10 min
  Times of activities in 2 h after drug administration/10 min: 251.3 ± 38.8 /10 min
  Times of activities in 24 h after drug administration/10 min: 314.6 ± 94.9 /10 min
Kunming mice [3]; 100 mg/kg
  Times of activities in 1 h after drug administration/10 min: 223.4 ± 46.5 /10 min
  Times of activities in 2 h after drug administration/10 min: 243.7 ± 40.6 /10 min
  Times of activities in 24 h after drug administration/10 min: 301.9 ± 88.6 /10 min

## C=Cc1cc(C2CC(=O)c3cc(C(N)=O)c(C4CCSC4)c(Oc4ccccc4)c3O2)ccc1N (stereo not drawn) [Example 57]
Kunming mice [1]; [4]
  duration of sleep: 41.14 ± 23.51 min
  time to sleep: 4.61 ± 1.53 min
Kunming mice [1]; [5]
  duration of sleep: 48.87 ± 19.80 min
  time to sleep: 4.13 ± 1.71 min
Kunming mice [1]; [6]
  duration of sleep: 54.44 ± 21.81 min
  time to sleep: 3.43 ± 1.20 min
Kunming mice [2]; [7]
  Number of sleeping animals: 4
  rate of sleeping (%): 40* %
Kunming mice [2]; [8]
  Number of sleeping animals: 6
  rate of sleeping (%): 60** %
Kunming mice [2]; [9]
  Number of sleeping animals: 7
  rate of sleeping (%): 70** %
Kunming mice [3]; 25 mg/kg
  Times of activities in 1 h after drug administration/10 min: 299.9 ± 58.2 /10 min
  Times of activities in 2 h after drug administration/10 min: 288.1 ± 73.0 /10 min
  Times of activities in 24 h after drug administration/10 min: 311.7 ± 81.2 /10 min
Kunming mice [3]; 50 mg/kg
  Times of activities in 1 h after drug administration/10 min: 245.4 ± 45.9 /10 min
  Times of activities in 2 h after drug administration/10 min: 240.8 ± 63.24 /10 min
  Times of activities in 24 h after drug administration/10 min: 315.9 ± 85.6 /10 min
Kunming mice [3]; 100 mg/kg
  Times of activities in 1 h after drug administration/10 min: 206.6 ± 44.2 /10 min
  Times of activities in 2 h after drug administration/10 min: 199.6 ± 49.9 /10 min
  Times of activities in 24 h after drug administration/10 min: 325.7 ± 82.6 /10 min

## CC=Cc1cc(C(=O)O)c2c(=O)cc(-c3cc(C#N)c(F)c(C(=O)O)c3)oc2c1 [Example 22]
Kunming mice [1]; [4]
  duration of sleep: 30.12 ± 20.60 min
  time to sleep: 4.79 ± 2.43 min
Kunming mice [1]; [5]
  duration of sleep: 37.78 ± 14.02 min
  time to sleep: 4.68 ± 1.59 min
Kunming mice [1]; [6]
  duration of sleep: 52.57 ± 20.74 min
  time to sleep: 3.88 ± 1.18 min
Kunming mice [2]; [7]
  Number of sleeping animals: 6
  rate of sleeping (%): 60** %
Kunming mice [2]; [8]
  Number of sleeping animals: 7
  rate of sleeping (%): 70** %
Kunming mice [2]; [9]
  Number of sleeping animals: 9
  rate of sleeping (%): 90*** %
Kunming mice [3]; 25 mg/kg
  Times of activities in 1 h after drug administration/10 min: 320.3 ± 54.3 /10 min
  Times of activities in 2 h after drug administration/10 min: 291.3 ± 42.0 /10 min
  Times of activities in 24 h after drug administration/10 min: 301.3 ± 76.6 /10 min
Kunming mice [3]; 50 mg/kg
  Times of activities in 1 h after drug administration/10 min: 299.4 ± 42.7 /10 min
  Times of activities in 2 h after drug administration/10 min: 255.3 ± 41.3 /10 min
  Times of activities in 24 h after drug administration/10 min: 302.6 ± 91.8 /10 min
Kunming mice [3]; 100 mg/kg
  Times of activities in 1 h after drug administration/10 min: 281.5 ± 48.7 /10 min
  Times of activities in 2 h after drug administration/10 min: 225.6 ± 45.3 /10 min
  Times of activities in 24 h after drug administration/10 min: 315.4 ± 78.2 /10 min

## C=Cc1cc2c(=O)cc(-c3ccc(CC)c(N)c3)oc2c(C2CCSC2)c1C(N)=O (stereo not drawn) [Example 30]
Kunming mice [1]; [4]
  duration of sleep: 38.82 ± 15.41 min
  time to sleep: 4.37 ± 1.58 min
Kunming mice [1]; [5]
  duration of sleep: 43.66 ± 21.43 min
  time to sleep: 3.73 ± 1.22 min
Kunming mice [1]; [6]
  duration of sleep: 58.74 ± 19.57 min
  time to sleep: 3.25 ± 1.31 min
Kunming mice [2]; [7]
  Number of sleeping animals: 5
  rate of sleeping (%): 50** %
Kunming mice [2]; [8]
  Number of sleeping animals: 6
  rate of sleeping (%): 60** %
Kunming mice [2]; [9]
  Number of sleeping animals: 8
  rate of sleeping (%): 80*** %
Kunming mice [3]; 25 mg/kg
  Times of activities in 1 h after drug administration/10 min: 289.2 ± 45.7 /10 min
  Times of activities in 2 h after drug administration/10 min: 264.1 ± 42.2 /10 min
  Times of activities in 24 h after drug administration/10 min: 302.2 ± 87.3 /10 min
Kunming mice [3]; 50 mg/kg
  Times of activities in 1 h after drug administration/10 min: 235.8 ± 42.1 /10 min
  Times of activities in 2 h after drug administration/10 min: 244.5 ± 48.2 /10 min
  Times of activities in 24 h after drug administration/10 min: 294.5 ± 70.6 /10 min
Kunming mice [3]; 100 mg/kg
  Times of activities in 1 h after drug administration/10 min: 134.6 ± 35.7 /10 min
  Times of activities in 2 h after drug administration/10 min: 173.5 ± 39.2 /10 min
  Times of activities in 24 h after drug administration/10 min: 288.8 ± 92.1 /10 min
